Key:
Type in all cases: cell-based
[1] = test system: MDPC-23 cell (rat dental papilla-derived cell), a rat odontoblast-like cell line; experiment: Odontoblast proliferation test (CCK-8 assay); conditions: FIG. 4
Experimental: A Dulbecco's modified Eagle's medium (DMEM) added with 5% by mass of fetal bovine serum (FBS) was prepared. Then, an MDPC-23 cell (rat dental papilla-derived cell), which is a rat odontoblast-like cell line, was cultured in DMEM. Subsequently, 0.1 mL of DMEM where the MDPC-23 cells were cultured was injected into each well in a microplate (96 wells) so that 1000 MDPC-23 cells were distributed into each well.
Next, the odontoblast proliferation/differentiation promoting agents of Examples 1 to 10 and ultrapure water (control) were individually added to corresponding wells. Then, the added mixture was allowed to stand at ordinary temperature (25° C.) for 5 days. Thereafter, the proliferation of the MDPC-23 cells was evaluated using a kit for measuring the number of living cells (CCK-8: Cell Counting Kit-8).
In the CCK-8 assay, a microplate reader (measurement wavelength: 450 nm) was used. The CCK-8 assay was repeated 6 times.
The results of the CCK-8 assay in Examples 1 to 5 and the control were shown in FIG. 3 and the results of the CCK-8 assay in Examples 4, 6 to 10 and the control were shown in FIG. 4.

[2] = test system: human dental pulp stem cell (hDPSC); experiment: Differentiation test of human dental pulp stem cells into odontoblasts (real-time PCR); conditions: sample 5% by mass, 24 days, FIGS. 7A to 7E; for odontoblast-specific genes (BSP, rOPN, rOCB, rDSPP, and rDMP-1) mRNA expression: β-actin internal standard
Experimental: A DMEM for culturing hDPSC was prepared in the same manner as in the measurement of cell survival rate. […] The concentration of the sample in each odontoblast proliferation/differentiation promoting agent was 5% by mass. • Calcium salt of […]: […] (Comparative Example 1), • Calcium hydroxide: CH (Comparative Example 2), • Mineral trioxide aggregate: […] As an internal standard, β-actin was used. mRNA expression levels of RNA-bone sialoprotein (BSP) are shown in FIG. 7A. mRNA expression levels of RNA-osteopontin (rOPN) are shown in FIG. 7B. mRNA expression levels of RNA-osteocalcin (rOCN) are shown in FIG. 7C. mRNA expression levels of RNA-dentin sialophosphoprotein (rDSPP) are shown in FIG. 7D. mRNA expression levels of RNA-dentin matrix protein (rDMP-1) are shown in FIG. 7E.

[3] = test system: human dental pulp stem cell (hDPSC); experiment: Calcification state of hDPSC culture (alkaline phosphatase measurement, alizarin red S staining); conditions: ALPase at 14, 21, 28 days (FIG. 8), alizarin red S at 30 and 32 days (FIGS. 9A, 9B)
Experimental: When DMEM containing the odontoblast proliferation/differentiation promoting agent of Example 12 and ultrapure water (control) therein was allowed to stand for 14, 21, and 28 days, the calcification state thus obtained was evaluated via alkaline phosphatase (ALPase) measurement.
Further, when DMEM containing the odontoblast proliferation/differentiation promoting agents of Example 12 and Comparative Examples 1 to 4 and ultrapure water (control) therein was allowed to stand for 30 and 32 days, the calcification state thus obtained was evaluated via alizarin red S staining measurement. The evaluation of the calcification state was performed using one-way ANOVA and Tukey's HSD post-hoc test with a significance level set at 1%

[4] = test system: mesenchymal stem cell (MSC); experiment: Differentiation test of mesenchymal stem cells into odontoblasts (real-time PCR); conditions: MSC, 10, 17, and 24 days
Experimental: A DMEM for culturing mesenchymal stem cell (MSC) was prepared in the same manner as the measurement of cell survival rate, except that hDPSC was replaced with MSC.
Next, the odontoblast proliferation/differentiation promoting agent of Example 12 and ultrapure water (control) were individually dissolved directly in the DMEM for culturing MSC. Then, DMEM was subjected to real-time PCR when allowed to stand for 10, 17, and 24 days. As an internal standard, β-actin was used.
mRNA expression levels of RNA-bone sialoprotein (BSP) are shown in FIG. 8A. mRNA expression levels of RNA-dentin matrix protein (rDMP-1) are shown in FIG. 8B.

| SMILES | effect of promoting proliferation and/or differentiation of the MDPC-23 cells ([1]; as the concentration of C-MET was increased to 500 μg/mL (Example 7)) | effect of promoting proliferation and/or differentiation of the MDPC-23 cells ([1]; when the concentration of C-MET exceeded 500 μg/mL) | differentiation of hDPSC into odontoblasts [2] | odontoblast-specific genes (BSP, rOPN, rOCB, rDSPP, and rDMP-1) mRNA expression [2] | calcification [3] | differentiation of MSC into odontoblasts [4] | odontoblast-specific genes (BSP, rDMP-1) mRNA expression ([4]; β-actin internal standard) |
| --- | --- | --- | --- | --- | --- | --- | --- |
| C=C(C)C(=O)OCCOC(=O)c1ccc(C(=O)[O-])c(C(=O)[O-])c1.[Ca+2] [C-MET, calcium salt of 4-methacryloyloxyethyltrimellitic acid] | gradually improved | not found any further improvement | promoted | increased | promoted | promoted | increased |
| [Ca+2].[OH-].[OH-] [CH, Calcium hydroxide, reference compound] | – | – | not observed | no increase | calcification was found | – | – |
| [Ca+2].[Cl-].[Cl-] [CaCl2, Calcium chloride] | – | – | – | – | calcification was found | – | – |

From patent US20250295625A1, “AGENT FOR PROMOTING ODONTOBLAST PROPAGATION AND DIFFERENTIATION” (SUN MEDICAL CO., LTD., priority 2019, published 2025)
